From article PMC7763444, “Bioactive Steroids from the Red Sea Soft Coral Sinularia polydactyla” (Marine Drugs, 2020)

Tests used:
[1] = system: neuron-like SH-SY5Y cells; experiment: Neuroprotection in 3-NPA-induced model of Huntington's disease, Calcein AM viability; type: cell-based, human; conditions: 20 mM 3-NPA alone, 48 h
[2] = system: ELAM (E-selectin, CD62E) on HUVEC; experiment: Cell-surface ELISA CD62E (E-selectin, ELAM) after TNFα stimulation; type: cell-based, human; conditions: 10 µM; 30 min pre-treatment, then TNFα for 4 h
Protocol: TNFα stimulates NFκB (nuclear factor kappa-light-chain-enhancer of activated B cells) and thus E-selectin (CD62E, ELAM). Endothelial cells were pre-treated for 30 min with the tested compounds and then activated with TNFα for 4 h. Curcumin, which inhibits activation of NF-κB and thus inhibits expression and activity of the COX-2 gene induced by TNFα [21], was used as a positive control, decreasing ELAM production to 25% at 10 µM.
An enzyme-linked immunosorbent assay (ELISA) was used to detect the levels of the cell adhesion molecule ELAM in HUVEC cells after 30 min of incubation with the tested compounds and 4 h of stimulation with TNFα, as previously described.
the cell surface of endothelial cells that were pretreated with 10 µM compounds for 30 min and
subsequently stimulated with 10 ng/ml TNFα for 4 h. Data are means ± SDs ( n = 3).
(1 picture or pasted object on this page, not shown here)

Compound	Decrease in cell viability [1]	ELAM production (decreased to) [2] [%]
O=C(O)CC[N+](=O)[O-] [Compound 3-NPA, 3-nitropropionic acid]	approx. 70%	
COc1cc(/C=C/C(=O)CC(=O)/C=C/c2ccc(O)c(OC)c2)ccc1O [Curcumin]		25
